From US9493432B2, “Cyclopentylbenzamide derivatives and their use for the treatment of psychotic and cognitive disorders” (Takeda Pharmaceutical Company Limited, priority 2013, dated 2016)

How the values were obtained:
human orexin receptor 2 = human orexin receptor 2 (Homo sapiens (Human), UniProt O43614); test: Orexin antagonist activity, intracellular calcium FLIPR assay (orexin receptor 2); format: cell-based; settings: RBL-2H3 cells stably expressing human orexin receptor 2; Ca2+ dye FLIPR; compound 15 minutes before orexin-A at approximately 80% maximal response; read-out: Human Orexin2R IC50
Experimental: (§1) Orexin antagonist activity was determined by measuring changes in intracellular calcium levels using a Ca^2+ sensitive fluorescent dye. The changes in fluorescent signal were monitored by Fluorescent Imaging Plate Reader (FLIPR™) technology available from Molecular Devices, LLC, U.S.A. Orexin mediated increases in intracellular Ca^2+ concentration were readily detected upon activation with orexin-A. Twenty-four hours prior to the assay, RBL-2H3 cells stably expressing either human orexin receptor 1 or human orexin receptor 2 were seeded in cell culture medium in black, clear-bottom 384-well plates (commercially available from Corning Inc., U.S.A.) and grown overnight at 37° C., 5% CO2. On the day of the assay, cell culture media was removed and cells were loaded with Calcium 5 Dye (commercially sold by Molecular Devices, LLC, U.S.A.) for 1 hour at 37° C., 5% CO2. Test compounds (at 10 point half log concentration response curves from 10 μM) were added to cells for 15 minutes prior to the addition of orexin-A to all wells, to achieve a final concentration that produces approximately an 80% maximal response. The IC50 values were determined from ten point concentration response curves. Curves were generated using the average of two wells for each data point.

human orexin receptor 1 = human orexin receptor 1 (Homo sapiens (Human), UniProt O43613); test: Orexin antagonist activity, intracellular calcium FLIPR assay (orexin receptor 1); format: cell-based; settings: RBL-2H3 cells stably expressing human orexin receptor 1; Ca2+ dye FLIPR; compound 15 minutes before orexin-A at approximately 80% maximal response; read-out: Human Orexin1R IC50
Experimental: as §1

Sequence of human orexin receptor 2 (O43614 whole entry): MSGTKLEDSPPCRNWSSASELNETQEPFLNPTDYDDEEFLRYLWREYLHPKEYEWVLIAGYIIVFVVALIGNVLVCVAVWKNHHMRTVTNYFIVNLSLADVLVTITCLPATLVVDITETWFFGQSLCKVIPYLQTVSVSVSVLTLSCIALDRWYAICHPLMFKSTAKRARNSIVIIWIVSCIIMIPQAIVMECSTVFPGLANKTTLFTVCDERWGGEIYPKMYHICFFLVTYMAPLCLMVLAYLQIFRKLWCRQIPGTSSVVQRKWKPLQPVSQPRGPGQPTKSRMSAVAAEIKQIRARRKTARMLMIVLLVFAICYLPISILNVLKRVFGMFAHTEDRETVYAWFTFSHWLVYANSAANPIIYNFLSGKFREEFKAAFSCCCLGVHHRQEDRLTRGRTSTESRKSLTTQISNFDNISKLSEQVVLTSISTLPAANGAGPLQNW
Sequence of human orexin receptor 1 (O43613 whole entry): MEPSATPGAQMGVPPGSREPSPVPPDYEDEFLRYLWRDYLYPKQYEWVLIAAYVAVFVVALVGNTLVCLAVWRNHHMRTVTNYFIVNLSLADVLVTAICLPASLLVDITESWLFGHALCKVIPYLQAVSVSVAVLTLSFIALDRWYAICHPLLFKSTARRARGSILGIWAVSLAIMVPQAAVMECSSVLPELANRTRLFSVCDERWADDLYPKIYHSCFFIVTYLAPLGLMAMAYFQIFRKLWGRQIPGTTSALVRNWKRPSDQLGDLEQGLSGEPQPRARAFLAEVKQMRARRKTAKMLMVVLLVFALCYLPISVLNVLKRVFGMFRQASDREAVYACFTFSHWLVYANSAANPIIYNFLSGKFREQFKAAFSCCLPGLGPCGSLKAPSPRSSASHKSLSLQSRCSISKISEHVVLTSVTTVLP

Row | SMILES | IC50 (human orexin receptor 2) | IC50 (human orexin receptor 1)
1 | COc1cccc(OC)c1C(=O)N[C@H]1CCC[C@@H]1Nc1nc2cc(F)ccc2s1 [Example 84, N-[(1S,2S)-2-[(5-Fluoro-1,3-benzothiazol-2-yl)amino]cyclopentyl]-2,6-dimethoxybenzamide] | > 10 µM | 0.045 µM
2 | O=C(N[C@H]1CCC[C@@H]1Nc1nc2ccc(F)cc2s1)c1c(F)cccc1Cl [Example 70, 2-Chloro-6-fluoro-N-[(1S,2S)-2-[(6-fluoro-1,3-benzothiazol-2-yl)amino]cyclopentyl]benzamide] | > 10 µM | 0.038 µM
3 | Cc1ccc(-n2nccn2)c(C(=O)N[C@H]2CCC[C@@H]2Nc2nc3ccccc3s2)c1 [Example 19, N-[(1S,2S)-2-[(1,3-Benzothiazol-2-yl)amino]cyclopentyl]-5-methyl-2-(2H-1,2,3-triazol-2-yl)benzamide] | 7.3 µM | 0.015 µM
4 | CCOc1ccccc1C(=O)N[C@H]1CCC[C@@H]1Nc1nc2ccc(F)cc2s1 [Example 49, 2-Ethoxy-N-[(1S,2S)-2-[(6-fluoro-1,3-benzothiazol-2-yl)amino]cyclopentyl]-benzamide] | 1.4 µM | 0.19 µM
5 | Cc1ccc(-n2ccnn2)c(C(=O)N[C@H]2CCC[C@@H]2Nc2nc3ccc(F)cc3s2)c1 [Example 38, N-[(1S,2S)-2-[(6-Fluoro-1,3-benzothiazol-2-yl)amino]cyclopentyl]-5-methyl-2-(1H-1,2,3-triazol-1-yl)benzamide] | > 10 µM | 0.013 µM
6 | Cc1ccc(-n2nccn2)c(C(=O)NC2CCCC2Cc2cnc3ccccc3n2)c1 (centres unmarked) [Example 63, 5-Methyl-N-[2-(quinoxalin-2-ylmethyl)cyclopentyl]-2-(2H-1,2,3-triazol-2-yl)benzamide] | 4.2 µM | 0.048 µM
7 | O=C(N[C@H]1CCC[C@@H]1Nc1nc2cc(F)ccc2o1)c1ccccc1-n1nccn1 [Example 88, N-[(1S,2S)-2-[(5-Fluoro-1,3-benzoxazol-2-yl)amino]cyclopentyl]-2-(2H-1,2,3-triazol-2-yl)benzamide] | 4.2 µM | 0.021 µM
8 | O=C(N[C@H]1CCC[C@@H]1Nc1nc2cc(F)ccc2s1)c1ccccc1-n1nccn1 [Example 92, N-[(1S,2S)-2-[(5-Fluoro-1,3-benzothiazol-2-yl)amino]cyclopentyl]-2-(2H-1,2,3-triazol-2-yl)benzamide] | 8.6 µM | 0.014 µM
9 | O=C(NC1CCC[C@@H]1Nc1nc2ccncc2s1)c1ccccc1-n1nccn1 (stereo in doubt) [Example 97, N-[(1S,2S)-2-({[1,3]Thiazolo[5,4-c]pyridin-2-yl}amino)cyclopentyl]-2-(2H-1,2,3-triazol-2-yl)benzamide] | > 10 µM | 0.78 µM
10 | Cc1nnc(-c2ccccc2C(=O)N[C@H]2CCC[C@@H]2Nc2nc3ccc(F)cc3s2)o1 [Example 72, N-[(1S,2S)-2-[(6-Fluoro-1,3-benzothiazol-2-yl)amino]cyclopentyl]-2-(5-methyl-1,3,4-oxadiazol-2-yl)benzamide] | > 10 µM | 0.014 µM
11 | COc1cccc(OC)c1C(=O)N[C@H]1CCC[C@@H]1Nc1nc2ccccc2s1 [Example 4, N-[(1S,2S)-2-[(1,3-Benzothiazol-2-yl)amino]cyclopentyl]-2,6-dimethoxybenzamide] | > 10 µM | 0.012 µM
12 | CC1(Nc2nc3ccc(Cl)cc3s2)CCCC1NC(=O)c1ccccc1-n1nccn1 (centres unmarked) [Example 108, N-{2-[(6-Chloro-1,3-benzothiazol-2-yl)amino]-2-methylcyclopentyl}-2-(2H-1,2,3-triazol-2-yl)benzamide] | 0.186 µM | 0.013 µM
13 | COc1cccc(OC)c1C(=O)N[C@H]1CC(F)C[C@H]1Nc1nc2ccc(Cl)cc2s1 (stereo in doubt) [Example 26, N-[(1S,2R)-2-[(6-Chloro-1,3-benzothiazol-2-yl)amino]-4-fluorocyclo-pentyl]-2,6-dimethoxybenzamide] | > 10 µM | 0.064 µM
14 | COc1cccc(OC)c1C(=O)N[C@H]1CCC[C@@H]1Nc1nc2ccc(F)cc2o1 [Example 66, N-[(1S,2S)-2-[(6-Fluoro-1,3-benzoxazol-2-yl)amino]cyclopentyl]-2,6-dimethoxybenzamide] | > 10 µM | 0.05 µM
15 | O=C(N[C@H]1CCC[C@@H]1Nc1nc2cc(Cl)ccc2s1)c1ccccc1-n1nccn1 [Example 89, N-[(1S,2S)-2-[(5-Chloro-1,3-benzothiazol-2-yl)amino]cyclopentyl]-2-(2H-1,2,3-triazol-2-yl)benzamide] | 5.4 µM | 0.027 µM
16 | Cc1noc(-c2ccccc2C(=O)NC2CCC[C@@H]2Nc2nc3ccc(F)cc3o2)n1 (stereo in doubt) [Example 99, N-[(1S,2S)-2-[(6-Fluoro-1,3-benzoxazol-2-yl)amino]cyclopentyl]-2-(3-methyl-1,2,4-oxadiazol-5-yl)benzamide] | > 10 µM | 0.012 µM

Row | SMILES | IC50 (human orexin receptor 2) | IC50 (human orexin receptor 1)
17 | Cc1noc(-c2ccccc2C(=O)N(C)[C@H]2CCC[C@@H]2Nc2nc3ccc(F)cc3s2)n1 [Example 83, N-[(1S,2S)-2-[(6-Fluoro-1,3-benzothiazol-2-yl)amino]cyclopentyl]-N-methyl-2-(3-methyl-1,2,4-oxadiazol-5-yl)benzamide] | 1.2 µM | 0.001 µM
18 | COc1cccc(OC)c1C(=O)N[C@H]1CCC[C@@H]1Nc1nc2ccc(F)cc2s1 [Example 3, N-[(1S,2S)-2-[(6-Fluoro-1,3-benzothiazol-2-yl)amino]cyclopentyl]-2,6-dimethoxybenzamide] | 7.6 µM | 0.0042 µM
19 | O=C(N[C@H]1CCC[C@@H]1Nc1nc2ccc(F)cc2s1)c1cc(F)ccc1-n1nccn1 [Example 36, 5-Fluoro-N-[(1S,2S)-2-[(6-fluoro-1,3-benzothiazol-2-yl)amino]cyclopentyl]-2-(2H-1,2,3-triazol-2-yl)benzamide] | 5.4 µM | 0.0083 µM
20 | O=C(N[C@H]1CCC[C@@H]1Nc1nc2ccccc2s1)c1ccccc1-n1nccn1 [Example 90, N-[(1S,2S)-2-[(1,3-Benzothiazol-2-yl)amino]cyclopentyl]-2-(2H-1,2,3-triazol-2-yl)benzamide] | > 10 µM | 0.016 µM
21 | Cc1ccc(-n2nccn2)c(C(=O)NC2CCCC2Cc2ccc3ccccc3n2)c1 (single isomer, unassigned) [Example 61, 5-Methyl-N-[2-(quinolin-2-ylmethyl)cyclopentyl]-2-(2H-1,2,3-triazol-2-yl)benzamide] | > 10 µM | 0.035 µM
22 | O=C(N[C@H]1CCC[C@@H]1Nc1nc2ccc(F)cc2s1)c1ccccc1-n1cncn1 [Example 44, N-[(1S,2S)-2-[(6-Fluoro-1,3-benzothiazol-2-yl)amino]cyclopentyl]-2-(1H-1,2,4-triazol-1-yl)benzamide] | > 10 µM | 0.051 µM
23 | COc1cccc(OC)c1C(=O)N[C@@H]1CCC[C@H]1Nc1nc2ccccc2s1 [Example 11, N-[(1R,2R)-2-[(1,3-Benzothiazol-2-yl)amino]cyclopentyl]-2,6-dimethoxybenzamide] | 1.8 µM | 0.36 µM
24 | COc1cccc(OC)c1C(=O)NC1CN(C(=O)OCc2ccccc2)CC1Nc1nc2ccc(Cl)cc2s1 (stereo not drawn) [Example 22, Benzyl cis-3-[(6-chloro-1,3-benzothiazol-2-yl)amino]-4-[(2,6-dimethoxybenzene)amido]pyrrolidine-1-carboxylate] | 8.6 µM | 0.023 µM
25 | CCOc1ccc(C)cc1C(=O)NC1CCCC1Cc1ccc2ccccc2n1 (centres unmarked) [Example 31, 2-Ethoxy-5-methyl-N-(2-(quinolin-2-ylmethyl)cyclopentyl)-benzamide] | 3.3 µM | 0.092 µM
26 | CN(C(=O)c1c(F)cccc1F)[C@H]1CCC[C@@H]1Nc1nc2ccc(F)cc2s1 [Example 76, 2,6-Difluoro-N-[(1S,2S)-2-[(6-fluoro-1,3-benzothiazol-2-yl)amino]cyclopentyl]-N-methylbenzamide] | 2.5 µM | 0.023 µM
27 | O=C(N[C@H]1CCC[C@@H]1Nc1nc2ccc(F)cc2s1)c1ccccc1-n1ccnc1 [Example 43, N-[(1S,2S)-2-[(6-Fluoro-1,3-benzothiazol-2-yl)amino]cyclopentyl]-2-(1H-imidazol-1-yl)benzamide] | > 10 µM | 0.039 µM
28 | COc1c(F)cccc1C(=O)N[C@H]1CCC[C@@H]1Nc1nc2ccc(F)cc2s1 [Example 54, 3-Fluoro-N-[(1S,2S)-2-[(6-fluoro-1,3-benzothiazol-2-yl)amino]cyclopentyl]-2-methoxybenzamide] | 3.5 µM | 0.31 µM
29 | COc1cccc(OC)c1C(=O)N[C@H]1CCC[C@H]1Nc1nc2ccc(Cl)cc2s1 [Example 15, N-[(1S,2R)-2-[(6-Chloro-1,3-benzothiazol-2-yl)amino]cyclopentyl]-2,6-dimethoxybenzamide] | 0.16 µM | 0.035 µM
30 | O=C(N[C@H]1CCC[C@@H]1Nc1nc2ccc(F)cc2o1)c1ccccc1-n1nccn1 [Example 87, N-[(1S,2S)-2-[(6-Fluoro-1,3-benzoxazol-2-yl)amino]cyclopentyl]-2-(2H-1,2,3-triazol-2-yl)benzamide] | > 10 µM | 0.021 µM
31 | COc1cccc(OC)c1C(=O)N[C@H]1CCC[C@@H]1Nc1nc2ccc(Cl)cc2s1 [Example 10, N-[(1S,2S)-2-[(6-Chloro-1,3-benzothiazol-2-yl)amino]cyclopentyl]-2,6-dimethoxybenzamide] | 7.2 µM | 0.21 µM
